Results: PubChem BioAssay AID248 (DTP/NCI, 2004)
Where “and” joins values, the source holds several entries; their conditions need not be identical. Identical values can stand only once. Toxic doses and inconclusive results are not listed.

Tested on: L1210 leukemia ip in BDF1 mice, survival T/C
Experiment: NCI In Vivo Anticancer Drug Screen. Data for tumor model L1210 Leukemia (intraperitoneal) in B6D2F1 (BDF1) mice
Conditions: endpoint: mean survival time, higher = longer survival
Outline: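 Tumor was transplanted into mice, which were then dosed with test compound or vehicle alone. Survival was recorded for each group, and the treated figure was expressed relative to the control figure.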

[1] = dose: 100.0 mg/kg/injection, schedule: Q04DX003 (ip), vehicle: saline with Tween-80
[2] = dose: 200.0 mg/kg/injection, schedule: Q04DX003 (ip), vehicle: saline with Tween-80
[3] = dose: 400.0 mg/kg/injection, schedule: Q04DX003 (ip), vehicle: saline with Tween-80
[4] = dose: 50.0 mg/kg/injection, schedule: Q04DX003 (ip), vehicle: saline
[5] = dose: 100.0 mg/kg/injection, schedule: Q01DX001 (ip), vehicle: Klucel (hydroxypropylcellulose) (HPC)
[6] = dose: 200.0 mg/kg/injection, schedule: Q01DX001 (ip), vehicle: Klucel (hydroxypropylcellulose) (HPC)
[7] = dose: 400.0 mg/kg/injection, schedule: Q01DX001 (ip), vehicle: Klucel (hydroxypropylcellulose) (HPC)
[8] = dose: 100.0 mg/kg/injection, schedule: Q01DX001 (ip), vehicle: saline
[9] = dose: 200.0 mg/kg/injection, schedule: Q01DX001 (ip), vehicle: saline
[10] = dose: 400.0 mg/kg/injection, schedule: Q01DX001 (ip), vehicle: saline
[11] = dose: 100.0 mg/kg/injection, schedule: Q01DX009 (ip), vehicle: saline
[12] = dose: 200.0 mg/kg/injection, schedule: Q01DX009 (ip), vehicle: saline
[13] = dose: 100.0 mg/kg/injection, schedule: Q04DX003 (ip), vehicle: Klucel (hydroxypropylcellulose) (HPC)
[14] = dose: 200.0 mg/kg/injection, schedule: Q04DX003 (ip), vehicle: Klucel (hydroxypropylcellulose) (HPC)

`CN=C(c1ccc(NC(=O)c2ccc(C(=O)Nc3ccc(C(=NC)N(C)C(C)=O)cc3)c(Cl)c2)cc1)N(C)C(C)=O` was tested, and the T/C (dose: 25.0 mg/kg/injection, schedule: Q01DX015 (ip), vehicle: methylcellulose (MC)) was 95 % of control, the T/C (dose: 50.0 mg/kg/injection, schedule: Q01DX015 (ip), vehicle: methylcellulose (MC)) was 93 % of control and the T/C (dose: 75.0 mg/kg/injection, schedule: Q01DX015 (ip), vehicle: methylcellulose (MC)) was 96 % of control. For the same compound, the T/C (dose: 200.0 mg/kg/injection, schedule: Q01DX015 (ip), vehicle: methylcellulose (MC)) was 93 % of control.
With `CC(C)(C)C(=O)CC(=O)C(C)(C)C.CC(C)(C)C(=O)CC(=O)C(C)(C)C.CC(C)(C)C(=O)CC(=O)C(C)(C)C.[Tb]` the T/C [1] was 93 % of control, the T/C [2] was 93 % of control and the T/C [3] was 94 % of control.
In the case of `CC(C)(CCCCC(C)(C)NC(=O)Nc1ccc(Cl)c(Cl)c1)NC(=O)Nc1ccc(Cl)c(Cl)c1`, the T/C (dose: 100.0 mg/kg/injection, schedule: Q01DX001 (ip), vehicle: carboxymethylcellulose (CMC)) is reported as 92 % of control and the T/C (dose: 200.0 mg/kg/injection, schedule: Q01DX001 (ip), vehicle: carboxymethylcellulose (CMC)) is reported as 87 % of control.
For `OCCN1CCN(CCCN2c3ccccc3Oc3ccc(C(F)(F)F)cc32)CC1`, the T/C (dose: 25.0 mg/kg/injection, schedule: Q04DX003 (ip), vehicle: saline) was 92 % of control and the T/C [4] was 106 % of control.
For `CSc1nc(Cl)nc(C(Cl)(Cl)Cl)c1Cl`, the T/C [5] was 89 % of control, the T/C [6] was 103 % of control and the T/C [7] was 89 % of control.
`O=c1cc(CC(O)(c2ccccc2)c2ccccc2)cc[nH]1` was tested, and the T/C [8] was 100 % of control, the T/C [9] was 95 % of control and the T/C [10] was 100 % of control.
For `COc1cc(Br)c(CCC(=O)O)cc1OC`, the T/C [11] was 97 % of control, the T/C [1] was 96 % of control and the T/C [12] was 94 % of control. For the same compound, the T/C [2] was 114 % of control, the T/C (dose: 400.0 mg/kg/injection, schedule: Q01DX009 (ip), vehicle: saline) was 100 % of control and the T/C [3] was 91 % of control.
`NC1(C(=O)O)CSSC1` was tested, and the T/C (dose: 12.5 mg/kg/injection, schedule: Q01DX005 (ip), vehicle: saline) was 97 % of control, the T/C (dose: 25.0 mg/kg/injection, schedule: Q01DX005 (ip), vehicle: saline) was 99 % of control and the T/C (dose: 50.0 mg/kg/injection, schedule: Q01DX005 (ip), vehicle: saline) was 103 % of control and 114 % of control. For the same compound, the T/C [8] was 106 % of control, the T/C (dose: 100.0 mg/kg/injection, schedule: Q01DX005 (ip), vehicle: saline) was 110 % of control and the T/C [9] was 101 % of control.
For `CC(=O)Nc1cccnc1`, the T/C (dose: 50.0 mg/kg/injection, schedule: Q01DX009 (ip), vehicle: saline) was 101 % of control, the T/C [4] was 100 % of control and the T/C [11] was 101 % of control. The T/C (dose: 100.0 mg/kg/injection, schedule: Q04DX003 (ip), vehicle: saline) was 94 % of control, the T/C [12] was 98 % of control and the T/C (dose: 200.0 mg/kg/injection, schedule: Q04DX003 (ip), vehicle: saline) was 97 % of control.
In the case of `CCOC(=O)c1csc(/C=C/c2ccc([N+](=O)[O-])o2)n1`, the T/C [13] is reported as 89 % of control and the T/C [14] is reported as 92 % of control.
For `CC1CN=C(c2cccc(NC(=O)Nc3ccc(NC(=O)Nc4cccc(C5=NCC(C)N5)c4)cc3)c2)N1` (centres undefined), the T/C (dose: 4.5 mg/kg/injection, schedule: Q01DX Z (ip), vehicle: carboxymethylcellulose (CMC)) was 118 % of control, the T/C (dose: 36.0 mg/kg/injection, schedule: Q01DX Z (ip), vehicle: carboxymethylcellulose (CMC)) was 202 % of control and 217 % of control and the T/C (dose: 45.0 mg/kg/injection, schedule: Q01DX Z (ip), vehicle: carboxymethylcellulose (CMC)) was 153 % of control. For the same compound, the T/C (dose: 62.0 mg/kg/injection, schedule: Q01DX Z (oral), vehicle: carboxymethylcellulose (CMC)) was 113 % of control, the T/C (dose: 63.0 mg/kg/injection, schedule: Q01DX Z (ip), vehicle: carboxymethylcellulose (CMC)) was 112 % of control and the T/C (dose: 72.0 mg/kg/injection, schedule: Q01DX Z (ip), vehicle: carboxymethylcellulose (CMC)) was 101 % of control and 111 % of control. The T/C (dose: 125.0 mg/kg/injection, schedule: Q01DX Z (oral), vehicle: carboxymethylcellulose (CMC)) was 113 % of control, the T/C (dose: 250.0 mg/kg/injection, schedule: Q01DX Z (oral), vehicle: carboxymethylcellulose (CMC)) was 115 % of control and the T/C (dose: 500.0 mg/kg/injection, schedule: Q01DX Z (oral), vehicle: carboxymethylcellulose (CMC)) was 109 % of control.
With `CC/C(=C(/Cl)c1ccccc1)c1ccccc1` the T/C [5] was 98 % of control, the T/C [6] was 102 % of control and the T/C [7] was 100 % of control.
For `CCC(C)(C)c1ccc(O)cc1`, the T/C (dose: 50.0 mg/kg/injection, schedule: Q01DX009 (ip), vehicle: saline with Tween-80) was 102 % of control and the T/C (dose: 100.0 mg/kg/injection, schedule: Q01DX009 (ip), vehicle: saline with Tween-80) was 100 % of control.
With `CN1COc2c(n(C)c(=O)[nH]c2=O)C1` the T/C (dose: 50.0 mg/kg/injection, schedule: Q01DX001 (ip), vehicle: saline) was 97 % of control, the T/C [8] was 103 % of control and the T/C [9] was 89 % of control. For the same compound, the T/C [10] was 101 % of control.
`C=CCNC(=O)C1C2C=CC(C2)C1C(=O)NCC=C` (centres undefined) was tested, and the T/C [1] was 103 % of control and the T/C [2] was 103 % of control.
With `O=C1Nc2ccc(Br)cc2C1=Nc1ccc2c(c1)OCO2` the T/C (dose: 100.0 mg/kg/injection, schedule: Q04DX002 (ip), vehicle: Klucel (hydroxypropylcellulose) (HPC)) was 100 % of control, the T/C (dose: 200.0 mg/kg/injection, schedule: Q04DX002 (ip), vehicle: Klucel (hydroxypropylcellulose) (HPC)) was 95 % of control and the T/C (dose: 400.0 mg/kg/injection, schedule: Q04DX002 (ip), vehicle: Klucel (hydroxypropylcellulose) (HPC)) was 100 % of control.
In the case of `CC1(C)N=C(N)N=C(N)N1c1cccc(CCCCc2ccc(Cl)c(S(=O)(=O)F)c2)c1`, the T/C (dose: 7.0 mg/kg/injection, schedule: Q04DX003 (ip), vehicle: saline) is reported as 97 % of control, the T/C (dose: 12.5 mg/kg/injection, schedule: Q01DX009 (ip), vehicle: saline sonified) is reported as 91 % of control and the T/C (dose: 12.5 mg/kg/injection, schedule: Q04DX003 (ip), vehicle: saline sonified) is reported as 100 % of control. For the same compound, the T/C (dose: 14.0 mg/kg/injection, schedule: Q04DX003 (ip), vehicle: saline) was 95 % of control, the T/C (dose: 25.0 mg/kg/injection, schedule: Q04DX003 (ip), vehicle: saline sonified) was 102 % of control and the T/C (dose: 28.0 mg/kg/injection, schedule: Q04DX003 (ip), vehicle: saline) was 88 % of control. For the same compound, the T/C (dose: 50.0 mg/kg/injection, schedule: Q04DX003 (ip), vehicle: saline sonified) was 96 % of control and the T/C (dose: 56.0 mg/kg/injection, schedule: Q04DX003 (ip), vehicle: saline) was 93 % of control.
`CN(C)CC1(C)CCc2c(ccc3ccccc23)C1O` (centres undefined) was tested, and the T/C [5] was 94 % of control.
With `COc1ccc2c(c1)-c1c(O)c(OC)cc3c1C(C2)N(C)CC3` (centres undefined) the T/C (dose: 75.0 mg/kg/injection, schedule: Q01DX001 (ip), vehicle: saline) was 94 % of control, the T/C (dose: 150.0 mg/kg/injection, schedule: Q01DX001 (ip), vehicle: saline) was 98 % of control and the T/C (dose: 300.0 mg/kg/injection, schedule: Q01DX001 (ip), vehicle: saline) was 100 % of control.
For `CC(=O)Nc1cc(-c2ccccc2)c(NC(C)=O)c(-c2ccccc2)c1`, the T/C [8] was 90 % of control, the T/C [9] was 90 % of control and the T/C [10] was 94 % of control.
In the case of `Cc1ccc(S(=O)(=O)OCCOCCOCCOCCOCCOCCOS(=O)(=O)c2ccc(C)cc2)cc1`, the T/C (dose: 100.0 mg/kg/injection, schedule: Q01DX001 (ip), vehicle: other) is reported as 103 % of control, the T/C (dose: 200.0 mg/kg/injection, schedule: Q01DX001 (ip), vehicle: other) is reported as 98 % of control and the T/C (dose: 400.0 mg/kg/injection, schedule: Q01DX001 (ip), vehicle: other) is reported as 98 % of control.
`CN1COC(OC(C)(C)C)C(C)(C)C1` (centres undefined) was tested, and the T/C (dose: 100.0 mg/kg/injection, schedule: Q01DX001 (ip), vehicle: saline sonified) was 90 % of control and the T/C (dose: 400.0 mg/kg/injection, schedule: Q01DX001 (ip), vehicle: saline sonified) was 95 % of control.
For `Clc1cccc(/C=C2\c3cc(Cl)ccc3-c3c(Cl)cc(Cl)cc32)c1`, the T/C [5] was 96 % of control, the T/C (dose: 100.0 mg/kg/injection, schedule: Q01DX009 (ip), vehicle: Klucel (hydroxypropylcellulose) (HPC)) was 106 % of control and the T/C [13] was 97 % of control. For the same compound, the T/C [6] was 93 % of control, the T/C (dose: 200.0 mg/kg/injection, schedule: Q01DX009 (ip), vehicle: Klucel (hydroxypropylcellulose) (HPC)) was 98 % of control and the T/C [14] was 101 % of control. The T/C [7] was 93 % of control, the T/C (dose: 400.0 mg/kg/injection, schedule: Q01DX009 (ip), vehicle: Klucel (hydroxypropylcellulose) (HPC)) was 98 % of control and the T/C (dose: 400.0 mg/kg/injection, schedule: Q04DX003 (ip), vehicle: Klucel (hydroxypropylcellulose) (HPC)) was 101 % of control.
